Here are results for four molecules from paper PMC7004140, “In vitro hepatotoxicity of Petasites hybridus extract (Ze 339) depends on the concentration, the cytochrome activity of the cell system, and the species used” (Phytotherapy Research, 2019).

Series [1] relates to HepaRG cells. The series is described as follows: WST-1 metabolic activity (cytotoxicity) in HepaRG cells. In kind it is cell-based, human. Conditions: 4 hr. As for the experimental part:
(§1) HepG2 and H‐4‐II‐E cells were differentiated for 24 hr. HepaRG cells were directly seeded in precoated 96‐well microtiter plates and were incubated in William's medium with general purpose supplements according to manufacturer's manual until adherence. All cells were treated with Ze 339 (up to 100 μg/ml) or petasin, isopetasin, neopetasin, petasol, isopetasol, petasin mixture, fatty acid mixture, and reconstituted extracts (up to 250 μM) for 4 hr.
(§2) In the three cell lines, cytotoxicity was defined as a decrease in metabolic activity of ≥20% in the WST‐1 assay. At the end of the experiment, 10 μl WST‐1 reagent was added to each well. Plates were then incubated for 2 hr to allow for the reduction of WST‐1 reagent. Absorbance was measured using a microplate absorbance reader (Infinite M 200, Tecan Trading Ltd., Switzerland) at 450 nm, reference wavelength of 620 nm. Due to some matrix effect, the lowest concentration (0.02 μg/ml for Ze 339 and 3.9 μM for single constituents and mixtures) of each substance tested was defined as 100% metabolic activity. Results were expressed as percentage of the control metabolic activity, and data were presented as mean values ± SEM (n = 3–6).
(§3) Concentration‐response analysis was done using the sigmoidal Hill equation: E(t) = E0 − Emax × C(t)^N/(IC50 ^N + C(t)^N), where E is the effect at time t, E0 the effect at baseline (time = 0), IC50 the concentration yielding 50% of the maximal effect (Emax), and N denotes the sigmoidicity coefficient (Origin 2017 Software). For statistical analysis, analysis of variance with Dunnett's multicomparison test was used to correct for multiplicity of testing (IBM SPSS Statistics software, version 25, IBM Corp., USA). The level of significance was ^* p < .05, ^** p < .01 and ^*** p < .001; NS = no significance.
Background: Tetrazolium dyes change colour on reduction, which living cells bring about.

Another series concerns H-4-II-E cells. As to the kind of experiment: WST-1 metabolic activity (cytotoxicity) in H-4-II-E cells. Type of series: cell-based, rat (Rattus norvegicus). How it is done: as §1, §2, §3
In a further series the test system is HepG2 cells. The series is described as follows: WST-1 metabolic activity (cytotoxicity) in HepG2 cells. Conditions: HepG2, up to 250 μM, 4 hr. In kind it is cell-based, human. As for the experimental part: as §1, §2, §3
Series [2] concerns HepaRG cells. As to the kind of experiment: Coincubation of Ze 339 with single cytochrome inhibitors in HepaRG cells (WST-1). Type of series: cell-based, human. The settings on record: inhibitor 10 μM, Ze 339 100 μg/ml, 4 hr.
Description: To investigate whether metabolic activation by human phase I enzymes—at least in part—contributes to the cytotoxic effect, Ze 339 (concentrations up to 100 μg/ml) was coincubated in HepaRG cells for 4 hr with different single cytochromes inhibitors: ketoconazole (CYP3A4), sulfaphenazole (CYP2C9), montelukast (CYP2C8), omeprazole (CYP2C19), α‐naphthoflavone (CYP1A2), quinidine (CYP2D6), xanthotoxin (CYP2A6), chlormethiazole (CYP2E1), and ticlopidine (CYP2B6)—(each at a concentration of 10 μM). Inhibition of metabolic activity was evaluated with the WST‐1 assay using Ze 339 without inhibitor as a control.

In the case of `CC(C)=C1C[C@@]2(C)C(=CC1=O)CC[C@@H](O)[C@@H]2C` [isopetasol], in the series on HepaRG cells [1] (highest concentration), the cytotoxicity result is given as “not cytotoxic”. For the same molecule, the entries for the “change in metabolic activity” value with H-4-II-E cells (from 7.8 to 125 μM) and in the series with H-4-II-E cells (highest concentration) were “increase in metabolic activity” and “virtually no change”, respectively. For the same molecule, in the series on HepG2 cells, the cytotoxic effects result was “did not show cytotoxic effects”.
`C=C(C)[C@@H]1C[C@@]2(C)C(=CC1=O)CC[C@@H](O)[C@@H]2C` [petasol]: the metabolic activity is given as 68.6% in the series on HepaRG cells [1] (250 μM) and “up to 109%” in the series with H-4-II-E cells (concentrations ≥125 μM). The “change in metabolic activity” value in the series with H-4-II-E cells (medium concentrations 15.6–62.5 μM) is listed as “slight decrease”. Besides, the cytotoxic effects entry in the series on HepG2 cells is recorded as “did not show cytotoxic effects”.
In the case of `CC(C)(O)c1ccccc1CC[C@@H](SCC1(CC(=O)O)CC1)c1cccc(/C=C/c2ccc3ccc(Cl)cc3n2)c1` [montelukast], the “effect of cytochrome inhibitor on the cytotoxic effect of Ze 339” value in the series on HepaRG cells [2] is recorded as “attenuated”.
On to `C=C[C@H]1C[N@@]2CC[C@H]1C[C@@H]2[C@@H](O)c1ccnc2ccc(OC)cc12` [quinidine], for which the “effect of cytochrome inhibitor on the cytotoxic effect of Ze 339” value with HepaRG cells [2] is listed as “attenuated”.
